Assay type in all cases: biochemical
Assay [1] relates to Dihydropteridine reductase. Nature of the assay: Dihydropteridine reductase assay. Particulars: quinonoid dihydro form; relative to tetrahydrobiopterin form = 100. Here is the method:
Dihydropteridine reductase was assayed by the method of Craine, et al., (J. Biol. Chem., 247, 6082 (1972)).

Assay [2] concerns the target Tyrosine hydroxylase (Homo sapiens, UniProt P07101). Nature of the assay: Tyrosine hydroxylase cofactor assay. Particulars: relative to tetrahydrobiopterin = 100. Here is the method: Tyrosine hydroxylate was partially purified through a 25-45% ammonium sulfate fraction. […] The enzyme was assayed by a modification of the method of Nagatsu, T., Levitt, M., and Udenfriend, S. (Anal. Biochem. 9, 122, (1964)) where the Dowex chromatography step was replaced by a charcoal extraction.

Assay [3] addresses T1, Tryptophan hydroxylase (Rattus norvegicus, UniProt Q8CGU9).
T1 construct: crude 30,000×g supernatant; from tissue
T1 sequence (Q8CGU9 1-485): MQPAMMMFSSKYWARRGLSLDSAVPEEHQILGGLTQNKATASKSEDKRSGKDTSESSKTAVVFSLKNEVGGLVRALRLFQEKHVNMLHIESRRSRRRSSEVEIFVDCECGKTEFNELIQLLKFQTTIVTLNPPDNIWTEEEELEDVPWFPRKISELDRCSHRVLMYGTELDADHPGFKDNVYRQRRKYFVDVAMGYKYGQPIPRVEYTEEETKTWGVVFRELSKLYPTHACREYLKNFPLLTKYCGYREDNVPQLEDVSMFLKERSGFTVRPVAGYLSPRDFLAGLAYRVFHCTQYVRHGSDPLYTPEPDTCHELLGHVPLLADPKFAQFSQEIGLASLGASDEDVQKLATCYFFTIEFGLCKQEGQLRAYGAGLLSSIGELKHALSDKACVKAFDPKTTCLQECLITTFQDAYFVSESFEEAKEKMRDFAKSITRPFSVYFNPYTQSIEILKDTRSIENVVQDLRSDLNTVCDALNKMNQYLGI
Nature of the assay: Tryptophan hydroxylase cofactor assay. The following applies: relative to tetrahydrobiopterin = 100. The method, then:
Trytophan hydroxylase was assayed according to a modification of the method of Renson J., et al (Biochem. Biophys. Acta 25: 504 (1966)). The preparation of tryptophan hydroxylase was a crude 30,000×g supernatant which had been desalted on a Sephadex G-25 (Trade Name) column (Boadle-Biker, M.C., Biochem Pharmacol. 28: 2129 (1979).

The target of assay [4] is T2, Phenylalanine hydroxylase (Rattus norvegicus, UniProt P04176).
T2 construct: Phenylalanine hydroxylase was prepared from rat liver; from tissue; host or cells: rat liver
T2 sequence (P04176 1-453): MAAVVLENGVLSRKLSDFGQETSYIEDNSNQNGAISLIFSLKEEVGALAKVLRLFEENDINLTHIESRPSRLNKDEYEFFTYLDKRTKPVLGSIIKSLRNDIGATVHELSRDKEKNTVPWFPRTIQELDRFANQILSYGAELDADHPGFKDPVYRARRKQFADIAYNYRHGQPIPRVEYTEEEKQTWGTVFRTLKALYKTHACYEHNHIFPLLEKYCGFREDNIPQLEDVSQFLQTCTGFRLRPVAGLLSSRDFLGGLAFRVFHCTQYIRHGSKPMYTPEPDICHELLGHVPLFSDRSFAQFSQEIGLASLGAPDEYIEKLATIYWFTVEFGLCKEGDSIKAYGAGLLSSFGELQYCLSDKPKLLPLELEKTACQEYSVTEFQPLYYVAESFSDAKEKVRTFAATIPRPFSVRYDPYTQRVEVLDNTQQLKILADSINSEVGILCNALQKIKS
Nature of the assay: Phenylalanine hydroxylase cofactor assay. The following applies: rat liver enzyme; relative to tetrahydrobiopterin = 100. The method, then: Phenylalanine hydroxylase was measured as described in Shiman, R. et al., (J. Biol. Chem. 254: 11300 (1979)) except that the product of the reaction (tyrosine) was measured fluorometrically using the method of Waalkes, T. P. and Udenfriend, S. (J. Lab. Clin. Med. 50: 733 (1957). Phenylalanine hydroxylase was prepared from rat liver using hydrophobic chromatography (Shiman, R. et al. (J. Biol. Chem. 254: 11,300 (1979)). The specific activity of the enzyme, using BH4 as the co-factor, was 1.0 μmol/mg protein per minute at 37°.

The target in assay [5] is T3, bovine liver DHFR (Bos taurus, UniProt P00376).
T3 construct: bovine liver DHFR; from tissue; host or cells: bovine liver
T3 sequence (P00376 1-187): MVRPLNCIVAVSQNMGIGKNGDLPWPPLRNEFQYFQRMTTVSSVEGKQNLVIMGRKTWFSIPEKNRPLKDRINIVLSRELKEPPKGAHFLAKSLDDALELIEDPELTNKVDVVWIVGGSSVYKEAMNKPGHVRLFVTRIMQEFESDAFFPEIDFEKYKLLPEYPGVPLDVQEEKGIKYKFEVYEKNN
Nature of the assay: Dihydrofolate reductase assay. The following applies: for Dihydrofolate reductase V: 7,8-dihydro form, relative to 7,8-dihydrobiopterin = 100, bovine liver DHFR. Here is the method:
These assays were carried out on the 7,8-dihydropterin analogs of the compounds of formula I which was tetrahydropterins. The 7,8-dihydropterinswere obtained commercially (in the case of dihydrobiopterin) or synthesized from the corresponding compound of formula I. Synthesis of 7,8-dihydropterins involved the combination of 0.27 μmole of a compound of formula I, 20 μg of horseradish peroxidase, 0.6 μmole of hydrogen peroxide in 0.1 ml of 0.5M potassium phosphate buffer, pH 7.5. After 3 min at room temperature, 10 μg of bovine liver catalase was added. The production of the 7,8-dihydropterin was verified by U.V. spectroscopy.
The assay was carried out with bovine liver DHFR using a modification of the method of Bailey and Ayling (J. Biol. Chem., 253, 1598 (1978)) where the desired dihydropterin replaced dihydrobiopterin, and the HPLC system used consisted of an anaerobic 0.1M acetic acid (with or without 10% acetonitrite) solvent on a 25 cm×4.6 mm Dupont TMS-Zorbax column. In our hands, dihydrobiopterin is reduced at a rate 2.5% that of the natural substrate dihydrofolate.

This is an account of results in US4701455A, “Biopterin analogs” (Burroughs Wellcome Co., priority 1983, dated 1987).

Sequence of Tyrosine hydroxylase (P07101 whole entry): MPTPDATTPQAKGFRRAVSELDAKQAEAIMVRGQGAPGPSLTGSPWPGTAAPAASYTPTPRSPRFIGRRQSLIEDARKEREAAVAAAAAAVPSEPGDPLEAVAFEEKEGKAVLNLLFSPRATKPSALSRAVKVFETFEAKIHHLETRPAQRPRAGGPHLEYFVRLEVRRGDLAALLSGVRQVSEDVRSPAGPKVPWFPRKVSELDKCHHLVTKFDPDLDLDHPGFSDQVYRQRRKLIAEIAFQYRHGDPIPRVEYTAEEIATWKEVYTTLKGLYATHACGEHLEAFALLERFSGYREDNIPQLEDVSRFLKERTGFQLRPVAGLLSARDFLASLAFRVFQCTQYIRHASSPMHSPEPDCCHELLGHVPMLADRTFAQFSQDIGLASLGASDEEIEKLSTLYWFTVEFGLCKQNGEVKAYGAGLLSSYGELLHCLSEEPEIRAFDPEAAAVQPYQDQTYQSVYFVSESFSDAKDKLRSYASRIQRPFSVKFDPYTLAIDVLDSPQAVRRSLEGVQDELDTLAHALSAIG

Regarding `COCC1CNc2nc(N)[nH]c(=O)c2N1` (racemic) [6-Methoxymethyl-tetrahydropterin, (+-)-2-Amino-5,6,7,8-tetrahydro-6-methoxymethyl-4(3H)-pteridinone], the “Dihydropteridine reductase Vmax” value in assay [1] stood at 295%. Besides, the “Tyrosine hydroxylase Vmax” value in assay [2] amounted to 124%. The Tryptophan hydroxylase Vmax in assay [3] turned out to be 54%. Further, the Phenylalanine hydroxylase Vmax in assay [4] turned out to be 79%. Further, the “Dihydrofolate reductase V” value in assay [5] amounted to 800%.
`C[C@H](O)[C@H](O)[C@H]1CNc2nc(N)[nH]c(=O)c2N1` [Tetrahydrobiopterin]: the “Dihydropteridine reductase Vmax” value in assay [1] is listed as 100%. Further, in assay [2], the “Tyrosine hydroxylase Vmax” value was found to be 100%. In assay [3], the Tryptophan hydroxylase Vmax worked out at 100%. In assay [4], this compound yielded a Phenylalanine hydroxylase Vmax of 100%. Further, the “Dihydrofolate reductase V” value in assay [5] came to 100%.
With `C[C@H](O)[C@H](O)C1=Nc2c(nc(N)[nH]c2=O)NC1` [7,8-Dihydrobiopterin], the “Rate of reduction by DHFR relative to dihydrofolate” value in assay [5] (relative to natural substrate dihydrofolate) amounted to 2.5%.
